Experimental data from patent US11578343B2, “CAS9 proteins including ligand-dependent inteins” (President and Fellows of Harvard College, priority 2014, dated 2023).

Experiments:
Assay type in all cases: cell-based, human
VEGF genomic site = assay: T7 Endonuclease I Surveyor assay of genomic modification; conditions: FIG. 2
Description: (§1) The presence of two bands corresponding to smaller DNA fragments (the fragments are approximately the same size for EMX) indicates genomic modification.
(§2) 4-HT (1 μM) was added during transfection for +4-HT samples. 12 hours after transfection the media was replaced. 60 hours after transfection, cells were trypsinized and genomic DNA was isolated using the DNAdvance kit (Agencourt). […] PCR products were purified with a QIAquick PCR Purification Kit (Qiagen) and quantified with a Quant-iT PicoGreen dsDNA Kit (Life Technologies). 200 ng of purified PCR DNA was then combined with 2 μL of NEBuffer 2 (NEB) in a total volume of 19 μL and denatured then re-annealed with thermocycling at 95° C. for 5 min, 95-85° C. at 2° C./s, 85-20° C. at 0.2° C./s. The re-annealed DNA was incubated with 1 μL of T7 Endonuclease I (10 U/μL, NEB) at 37° C. for 15 min. 10 μL of 50% glycerol was added to the T7 Endonuclease reaction and 15 μL was analyzed on a 5% TBE 18-well Criterion PAGE gel (Bio-Rad) electrophoresed for 30 min at 200V and stained with EtBr for 15 min.

CLTA genomic site = assay: as above; conditions: FIG. 2
Description: as §1, §2

EMX genomic site = assay: as above; conditions: FIG. 2
Description: as §1, §2

genomic EGFP locus = assay: Genomic EGFP disruption in HEK293-GFP stable cells (loss of GFP by flow cytometry); conditions: for Loss of GFP expression / nuclease activity, in words: with or without 1 μM 4-HT, FIG. 3c
Description: HEK293-GFP stable cells were transfected with the Cas9 expression plasmid, a gRNA (targeting Emerald GFP; Guilinger et al., Nature Biotechnology (2014)), and iRFP670 (transfection control), using Lipofectamine 2000. Twelve hours after transfection, media, either containing 4-HT (1 μM) or without 4-HT, was added.
Five days after transfection, cells were trypsinized and analyzed on a flow cytometer. Cells lacking GFP indicated genome modification. Cas9 variants that induced minimal genome modification in the absence of 4-HT but induce significant genome modification in the presence of 4-HT were deemed small-molecule-regulated variants in this Example.
Additionally, a time course was performed in which incubation with 4-HT was limited to 2, 4, 8, 12 or 24 hours, after which point the media was replaced.
We genetically inserted the 4-HT-dependent intein at each of fifteen positions in Cas9 (Cys80, Ala127, Thr146, Ser219, Thr333, Thr519, Cys574, Thr622, Ser701, Ala728, Thr995, Ser1006, Ser1154, Ser1159, and Ser1274), chosen to distribute the location of the intein across the structural domains of Cas9^23 (FIG. 3b and Example 1). Because intein splicing leaves behind a single Cys residue, the intein was inserted in place of one Cas9 amino acid in each of the 15 candidate constructs. In addition to replacing natural Cys amino acids, we also favored replacing Ala, Ser, or Thr residues to minimize the likelihood that the resulting Cys point mutation resulting from protein splicing would disrupt Cas9 activity. The 15 intein-Cas9 candidates were expressed in HEK293-GFP cells together with a sgRNA that targets the genomic EGFP locus in these cells. Twelve hours post-transfection, cells were treated with or without 1 μM 4-HT. Five days post-transfection, cells were analyzed on a flow cytometer for loss of GFP expression from Cas9-mediated EGFP cleavage and subsequent non-homologous end joining.
Modification of genomic GFP. HEK293-GFP stable cells (GenTarget), which constitutively express Emerald GFP, served as the reporter cell line. Cells were maintained in “full serum media”: Dulbecco's Modified Eagle's Media plus GlutaMax (Life Technologies) with 10% (vol/vol) FBS and penicillin/streptomycin (1×, Amresco). 5×10^4 cells were plated on 48-well collagen-coated Biocoat plates (Becton Dickinson). 16-18 h after plating, cells were transfected with Lipofectamine 2000 (Life Technologies) according to the manufacturer's protocol. Briefly, 1.5 μL of Lipofectamine 2000 was used to transfect 650 ng of total plasmid: 500 ng Cas9 expression plasmid, 125 ng sgRNA expression plasmid, and 25 ng near-infrared iRFP670 expressing plasmid (Addgene plasmid 45457)^26. 12 h after transfection, the media was replaced with full serum media, with or without 4-HT (1 μM, Sigma-Aldrich T176). The media was replaced again 3-4 days after transfection. Five days after transfection, cells were trypsinized and resuspended in full serum media and analyzed on a C6 flow cytometer (Accuri) with a 488-nm laser excitation and 520-nm filter with a 20-nm band pass. Transfections and flow cytometry measurements were performed in triplicate.

[1] = +4-HT 2 hrs, then media replaced, Table 2
[2] = +4-HT 4 hrs, then media replaced, Table 2
[3] = +4-HT 8 hrs, then media replaced, Table 2
[4] = +4-HT 12 hrs, then media replaced, Table 2
[5] = +4-HT 24 hrs, then media replaced, Table 2
[6] = +4-HT (1 μM, added 12 h after transfection), five days after transfection, Table 1
[7] = −4-HT, five days after transfection, Table 1

Substance	Genomic modification of target site (T7E1 gel) (VEGF genomic site; +4-HT (1 μM))	Genomic modification of target site (T7E1 gel) (VEGF genomic site; absence of 4-HT)	Genomic modification of target site (T7E1 gel) (CLTA genomic site; +4-HT (1 μM))	Genomic modification of target site (T7E1 gel) (CLTA genomic site; absence of 4-HT)	Genomic modification of target site (T7E1 gel) (EMX genomic site; +4-HT (1 μM))	Genomic modification of target site (T7E1 gel) (EMX genomic site; absence of 4-HT)	Cells without GFP (%) (genomic EGFP locus; [1])	Cells without GFP (%) (genomic EGFP locus; [2])	Cells without GFP (%) (genomic EGFP locus; [3])	Cells without GFP (%) (genomic EGFP locus; [4])	Cells without GFP (%) (genomic EGFP locus; [5])	Cells without GFP (%) (genomic EGFP locus; [6])	Loss of GFP expression / nuclease activity, in words (genomic EGFP locus; listed as C574)	Cells without GFP (%) (genomic EGFP locus; [7])	Cells without GFP (%) (genomic EGFP locus; −4-HT, time course, Table 2)	Loss of GFP expression / nuclease activity, in words (genomic EGFP locus; listed as 5219)
intein(Cys574)-Cas9: Cas9 with 37R3-2 intein replacing Cys574 (SEQ ID NO: 33)	comparable to modification by wild-type Cas9	minimal or no modification	comparable to modification by wild-type Cas9	some background cleavage	comparable to modification by wild-type Cas9	minimal or no modification	14.57%	13.11%	16.91%	16.10%	14.52%	21.44%	4-HT-dependent loss of GFP expression and high activity in the presence of 4-HT and low activity in the absence of 4-HT	5.74%	2.91%	–
intein(Ser219)-Cas9: Cas9 with 37R3-2 intein replacing Ser219 (SEQ ID NO: 30)	comparable to modification by wild-type Cas9	minimal or no modification	comparable to modification by wild-type Cas9	some background cleavage	comparable to modification by wild-type Cas9	minimal or no modification	17.25%	17.07%	15.12%	15.28%	24.39%	23.98%	–	6.53%	3.92%	4-HT-dependent loss of GFP expression and high activity in the presence of 4-HT and low activity in the absence of 4-HT
